The text below walks through data of patent US5082843A, “Pyrazinyl and pyridazinyl ethers” (John Wyeth and Brother Limited, priority 1987, dated 1992).

Assay [1] has as its target T1, 5-HT3 receptors (Rattus norvegicus, UniProt P35563).
T1 construct: isolated vagus nerve of the rat; from tissue; host or cells: isolated (cervical) vagus nerve of the rat
T1 sequence (P35563 24-483): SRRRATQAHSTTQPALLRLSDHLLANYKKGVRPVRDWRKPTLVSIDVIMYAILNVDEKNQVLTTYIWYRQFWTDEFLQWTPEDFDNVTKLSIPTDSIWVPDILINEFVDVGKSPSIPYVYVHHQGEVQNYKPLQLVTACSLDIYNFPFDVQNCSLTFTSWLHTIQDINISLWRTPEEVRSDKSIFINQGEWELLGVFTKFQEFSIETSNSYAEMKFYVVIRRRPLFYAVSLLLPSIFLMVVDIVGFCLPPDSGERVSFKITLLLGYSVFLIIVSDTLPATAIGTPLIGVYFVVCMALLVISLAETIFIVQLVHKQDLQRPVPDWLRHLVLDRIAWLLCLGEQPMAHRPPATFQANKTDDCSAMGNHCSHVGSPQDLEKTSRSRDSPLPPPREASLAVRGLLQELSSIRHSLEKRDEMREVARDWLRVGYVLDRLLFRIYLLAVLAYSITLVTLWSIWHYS
In words: 5-HT3 receptor antagonism in the isolated vagus nerve of the rat (5-HT induced depolarization). The note with it: isolated rat cervical vagus nerve; antagonism of 5-HT induced depolarization; from 5-HT concentration ratios; read-out: apparent pKB (converted). On the procedure: The compound of the invention are tested for 5-HT3 receptor antagonism in the isolated vagus nerve of the rat by a method based upon that of Ireland S. J. and Tyers M. B., Brit. J. Pharmacol., 1987, 90, 229-238. The procedure relies upon the ability of 5-HT to induce depolarization of neurones in the cervical vagus nerve by a direct action on 5-HT3 receptors. A concentration-response curve to 5-HT induced depolarization is obtained and the antagonists are added to the bath containing the isolated nerve before repeating the 5-HT concentration-response curve. Antagonist potency is estimated for the 5-HT concentration ratios and expressed as an apparent pKB value (where KB is the antagonist dissociation constant).

For assay [2], the target named is T2, 5-HT3 receptors (Oryctolagus cuniculus, UniProt A0A5F9C9J3).
T2 construct: 5-HT3 receptors present on sympathetic nerve terminals in the heart; from tissue; host or cells: isolated right atrium of the rabbit heart (sympathetic nerve terminals)
T2 sequence (A0A5F9C9J3 1-494): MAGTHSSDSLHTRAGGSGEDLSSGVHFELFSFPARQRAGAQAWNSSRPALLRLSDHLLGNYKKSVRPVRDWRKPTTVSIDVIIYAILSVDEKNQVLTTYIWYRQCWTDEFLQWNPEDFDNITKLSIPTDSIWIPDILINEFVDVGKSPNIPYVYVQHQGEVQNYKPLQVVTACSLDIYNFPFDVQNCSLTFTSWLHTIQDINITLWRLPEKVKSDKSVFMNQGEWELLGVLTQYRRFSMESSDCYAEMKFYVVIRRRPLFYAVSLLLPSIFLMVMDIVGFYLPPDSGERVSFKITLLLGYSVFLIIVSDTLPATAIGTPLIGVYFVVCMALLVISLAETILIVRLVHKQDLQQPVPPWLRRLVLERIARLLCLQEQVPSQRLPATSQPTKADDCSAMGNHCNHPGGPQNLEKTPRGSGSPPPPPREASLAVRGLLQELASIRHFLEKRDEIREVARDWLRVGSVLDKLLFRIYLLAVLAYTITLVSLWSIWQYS
In words: 5-HT3 antagonistic activity in the isolated right atrium of the rabbit heart. The note with it: antagonism of 5-HT evoked increase in spontaneous rate of beating, read-out: apparent pKB (converted). On the procedure: The compounds of the invention are also tested for 5-HT3 antagonistic activity in the isolated right atrium of the rabbit heart based upon the method of Fozard J. R., Naunyn-Schmiedeberg's Arch. Pharmacol., 1984, 326, 36-44. This procedure relies upon the ability of 5-HT to stimulate 5-HT3 receptors present on sympathetic nerve terminals in the heart, causing release of noradrenaline which evokes an increase in the spontaneous rate of beating. The antagonist potency is expressed in a similar manner to that of the preceding test method i.e. as an apparent pKB.

For `CN1[C@@H]2CC[C@H]1C[C@@H](Oc1ccc3ccccc3n1)C2` [Example 2, Endo-8-methyl-3-(2-quinolyloxy)-8-aza-bicyclo[3.2.1]octane], the values for the Kb on 5-HT3 receptors [1] and at 5-HT3 receptors [2] were 31.6 nM and 2.51 nM, respectively.
